Reference: ChEMBL document CHEMBL1150007, “Novel indolactam-based inhibitors of matrix metalloproteinases” (Bioorg Med Chem Lett, 1995)

Tests used:
[1] = target: T1, Interstitial collagenase (Homo sapiens, UniProt P03956); test: Inhibition of human fibroblast collagenase, matrix metalloprotease-1
T1 sequence (P03956 whole entry): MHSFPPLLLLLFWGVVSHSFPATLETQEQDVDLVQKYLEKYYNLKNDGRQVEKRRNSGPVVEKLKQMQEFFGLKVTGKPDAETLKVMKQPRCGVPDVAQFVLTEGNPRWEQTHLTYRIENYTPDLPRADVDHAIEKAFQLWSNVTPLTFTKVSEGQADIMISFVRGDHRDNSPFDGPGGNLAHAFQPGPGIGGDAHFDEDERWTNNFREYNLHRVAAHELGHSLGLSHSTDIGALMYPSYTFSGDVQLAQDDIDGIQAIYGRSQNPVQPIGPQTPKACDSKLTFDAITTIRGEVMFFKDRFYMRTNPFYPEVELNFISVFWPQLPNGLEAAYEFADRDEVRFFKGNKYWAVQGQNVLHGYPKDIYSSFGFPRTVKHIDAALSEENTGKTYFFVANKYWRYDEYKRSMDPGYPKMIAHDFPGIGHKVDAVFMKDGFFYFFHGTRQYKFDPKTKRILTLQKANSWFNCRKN

[2] = target: Neutrophil collagenase (Homo sapiens, UniProt P22894); test: Inhibition of human Matrix metalloprotease-8
[3] = target: 72 kDa type IV collagenase (Homo sapiens, UniProt P08253); test: Inhibition of human […], matrix metalloprotease-2
[4] = target: T2, Matrilysin (Homo sapiens, UniProt P09237); test: Inhibition of Matrix metalloprotease-7
T2 sequence (P09237 whole entry): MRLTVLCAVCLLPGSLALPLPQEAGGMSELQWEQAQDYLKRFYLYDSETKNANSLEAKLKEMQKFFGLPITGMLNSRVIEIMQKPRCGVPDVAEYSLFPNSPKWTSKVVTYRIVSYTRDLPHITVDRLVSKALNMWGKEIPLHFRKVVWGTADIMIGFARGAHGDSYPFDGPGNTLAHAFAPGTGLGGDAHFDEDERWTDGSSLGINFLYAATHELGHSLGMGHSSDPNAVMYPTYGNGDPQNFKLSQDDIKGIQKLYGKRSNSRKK

[5] = target: Stromelysin-1 (Homo sapiens, UniProt P08254); test: Inhibition of human fibroblast stromelysin, matrix metalloprotease-3
Stromelysin-1, sequence (P08254 whole entry): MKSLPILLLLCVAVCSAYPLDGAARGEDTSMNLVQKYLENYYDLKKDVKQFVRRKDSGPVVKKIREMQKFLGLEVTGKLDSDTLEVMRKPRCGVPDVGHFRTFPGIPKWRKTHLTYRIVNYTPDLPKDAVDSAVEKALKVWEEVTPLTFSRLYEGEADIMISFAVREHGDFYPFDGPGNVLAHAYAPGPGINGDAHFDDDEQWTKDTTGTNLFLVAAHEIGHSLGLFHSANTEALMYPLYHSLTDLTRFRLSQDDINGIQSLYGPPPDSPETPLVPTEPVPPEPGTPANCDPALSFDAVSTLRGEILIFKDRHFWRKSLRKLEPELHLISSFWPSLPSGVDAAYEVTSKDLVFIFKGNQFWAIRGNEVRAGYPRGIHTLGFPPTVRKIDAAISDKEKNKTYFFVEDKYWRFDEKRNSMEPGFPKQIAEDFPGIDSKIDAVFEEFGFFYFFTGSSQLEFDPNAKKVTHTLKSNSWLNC

72 kDa type IV collagenase, sequence (P08253 whole entry): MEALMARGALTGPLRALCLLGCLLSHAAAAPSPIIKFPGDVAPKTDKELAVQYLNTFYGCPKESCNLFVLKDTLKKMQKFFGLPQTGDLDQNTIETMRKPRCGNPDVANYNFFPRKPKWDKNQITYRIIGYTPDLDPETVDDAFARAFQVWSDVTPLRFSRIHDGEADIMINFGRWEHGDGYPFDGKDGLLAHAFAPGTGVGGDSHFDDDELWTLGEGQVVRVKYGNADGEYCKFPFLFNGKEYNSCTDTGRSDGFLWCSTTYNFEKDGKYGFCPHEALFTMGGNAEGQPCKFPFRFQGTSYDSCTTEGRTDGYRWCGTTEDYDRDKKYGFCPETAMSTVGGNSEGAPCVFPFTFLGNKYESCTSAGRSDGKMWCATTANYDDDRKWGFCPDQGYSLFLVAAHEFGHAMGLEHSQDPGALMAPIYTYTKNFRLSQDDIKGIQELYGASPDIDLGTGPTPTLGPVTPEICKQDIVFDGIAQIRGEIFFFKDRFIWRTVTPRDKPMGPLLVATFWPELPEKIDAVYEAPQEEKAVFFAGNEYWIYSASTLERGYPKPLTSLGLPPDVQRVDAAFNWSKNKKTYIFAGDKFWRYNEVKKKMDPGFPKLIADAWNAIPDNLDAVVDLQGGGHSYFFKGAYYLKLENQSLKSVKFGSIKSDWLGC
Neutrophil collagenase, sequence (P22894 whole entry): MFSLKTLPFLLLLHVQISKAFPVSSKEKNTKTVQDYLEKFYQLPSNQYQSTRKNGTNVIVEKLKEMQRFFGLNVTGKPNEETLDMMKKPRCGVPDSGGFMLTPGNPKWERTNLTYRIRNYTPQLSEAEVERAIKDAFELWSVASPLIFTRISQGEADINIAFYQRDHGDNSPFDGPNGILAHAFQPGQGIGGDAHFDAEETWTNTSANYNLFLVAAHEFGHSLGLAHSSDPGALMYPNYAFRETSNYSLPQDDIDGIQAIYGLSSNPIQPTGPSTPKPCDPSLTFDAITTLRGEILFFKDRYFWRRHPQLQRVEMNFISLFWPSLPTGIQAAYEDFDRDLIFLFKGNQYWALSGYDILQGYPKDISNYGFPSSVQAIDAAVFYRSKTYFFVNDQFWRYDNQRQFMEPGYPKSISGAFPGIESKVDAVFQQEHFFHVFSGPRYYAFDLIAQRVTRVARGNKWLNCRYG

CCCCCCNC(=O)[C@H](Cc1c[nH]c2ccccc12)NC(=O)[C@@H](CC(=O)NO)CC(C)C
Ki [1]: 3 nM | Ki [2]: 0.5 nM | Ki [3]: 0.3 nM

CCCCCCNC(=O)[C@H](Cc1c[nH]c2ccccc12)NC(=O)[C@@H](CC(=O)O)CC(C)C
Ki [1]: 171 nM | Ki [4]: > 620 nM | Ki [2]: 163 nM | Ki [3]: 472 nM

CC(C)C[C@H](CP(=O)(O)CSc1ccc2ccccc2n1)C(=O)N[C@H]1Cc2cn(c3ccccc23)CCCCCCNC1=O
Ki [1]: 5 nM | Ki [5]: 806 nM | Ki [2]: 4 nM | Ki [3]: 14 nM

CCCCCCNC(=O)[C@H](Cc1c[nH]c2ccccc12)NC(=O)[C@H](CC(C)C)CP(=O)(O)CSc1ccc2ccccc2n1
Ki [1]: 432 nM | Ki [5]: 6580 nM | Ki [2]: 102 nM | Ki [3]: 300 nM

CNC(=O)[C@H](Cc1ccccc1)NC(=O)[C@H](CC(C)C)[C@H](CSc1cccs1)C(=O)O
Ki [1]: 1500 nM
